# In EP4635969A1, “NOVEL GLUCOCORTICOID, METHOD FOR PREPARING SAME, AND USE THEREOF” (Tianjin Pharmaceutical Biotechnology Co., Ltd., priority 2022, dated 2024):
# Key:
# [1] = system: dry eye syndrome model New Zealand rabbits; assay: Dry eye syndrome experiment (benzalkonium chloride model): tear film break-up time; format: in vivo, male New Zealand White rabbits; settings: compared with the model group
# Protocol: Positive control drug: Fluorometholone Eye Drops (specification: 5 mL/5 mg; Santen Pharmaceutical (CHINA) Co., Ltd.; Lot No.: 1FM6625) was used as the positive control drug and stored at room temperature protected from light until use.
# Thirty male New Zealand White rabbits (conventional grade) were prepared. Six rabbits were randomly selected as the blank control group, and the remaining animals were administered 0.1% benzalkonium chloride to the left eye twice daily (morning and evening) , 10 µL/animal each time. On day 6 of modeling, tear secretion was measured using phenol red cotton threads to determine whether the model was successfully established. […] During the administration, all animals except the blank control group were administered 10 µL of 0.1% benzalkonium chloride to the left eye once daily to maintain dry eye symptoms..
# • Test time: D3, D7, D15; • Test animals: All animals were tested before grouping; all enrolled surviving animals were tested after administration; • Test method: 1% Fluorescein sodium was dropped onto the inner side of the rabbit's lower eyelid, 10 µL/animal. The rabbit's eyes were closed and gently massaged to evenly distribute the fluorescein sodium on the eye surface. The rabbit's eyes were then sequentially placed under a slit lamp. The tear film break-up time was observed and recorded as the time from eye opening to the appearance of the first dark spot. If no dark spot appeared, the time was calculated as 60 seconds.
# The normality and homogeneity of variance were tested by Levene's test. If there was no statistical significance (P > 0.05), one-way analysis of variance (ANOVA) was used for statistical analysis. If ANOVA was statistically significant (P ≤ 0.05), LSD test (parametric method) was used for comparative analysis. If the variance was heterogeneous (P ≤ 0.05), Kruskal-Wallis test was used. If the Kruskal-Wallis test was statistically significant (P ≤ 0.05), Dunnett's test (nonparametric method) was used for comparative analysis.
# [2] = system: intraocular pressure of guinea pigs; assay: Adverse reactions of continuous ocular administration: intraocular pressure; format: in vivo
# Outline: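 Guinea pigs (300-350 g, both sexes) dosed bilaterally with 5 mg/5 mL ophthalmic suspensions, saline as blank; intraocular pressure measured before dosing and on days 7, 14, 21 and 28.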
# [3] = Stability in animal lung tissue homogenate, skin tissue homogenate and aqueous humor; format: in vitro ADME
# [4] = biological target: T1, progesterone receptor (PR) (Homo sapiens, UniProt P06401); assay: Assay for agonist activity on progesterone receptor (luciferase reporter, HEK293 cells transfected with pBIND-PR plasmid); format: cell-based; settings: for Target selectivity PR/GR: ratio of EC50 values
# T1 sequence (P06401 678-933): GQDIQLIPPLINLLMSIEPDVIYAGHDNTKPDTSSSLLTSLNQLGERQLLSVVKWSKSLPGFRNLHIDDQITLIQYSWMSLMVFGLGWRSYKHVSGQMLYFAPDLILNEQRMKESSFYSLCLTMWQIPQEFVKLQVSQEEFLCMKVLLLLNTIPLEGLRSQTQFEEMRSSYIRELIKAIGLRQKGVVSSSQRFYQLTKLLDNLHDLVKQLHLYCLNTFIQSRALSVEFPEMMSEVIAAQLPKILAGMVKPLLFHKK
# Outline: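 HEK293 cells transiently transfected with pBIND-MR or pBIND-PR, seeded in phenol red-free DMEM with 5% charcoal-stripped serum. Compounds tested as 12-point 4-fold dilutions from 50 µM in duplicate, 0.1% DMSO blank. Luciferase luminescence read, EC50 by nonlinear fit.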
# [5] = system: psoriasis model mice; assay: Psoriasis experiment (imiquimod model): skin lesion (PASI) score; format: in vivo; settings: compared with the model group
# Protocol: Positive control drug: Fluticasone Propionate Cream (specification: 0.05% × 15 g, Zhejiang Xianju Pharmaceutical Co. Ltd., Lot No. 211106), stored at room temperature protected from light until use.
# Adult mice were selected, and the skin of 2 cm × 3 cm on the back of mice was locally depilated. The mice in the model group and drug administration group were applied with 62.5 mg of 5% imiquimod cream on their back for modeling, while the mice in the blank control group were applied with medical petroleum jelly on their back daily. The above procedures were performed once a day for 7 consecutive days.
# The mice in the drug administration group were applied with the corresponding drugs on their backs daily at a dose of 0.2 g per mouse, while the blank control group and the model group were only applied with 0.2 g of the test sample drug matrix. One hour after drug administration, the drugs were wiped off with sterile cotton swabs, followed by the application of imiquimod. The above procedures were performed once a day for 7 consecutive days.
# Referring to the clinical Psoriasis Area and Severity Index (PASI) scoring criteria, erythema, scaling, and thickness at the skin lesion sites were evaluated on a 0-4 scale on day 8 of modeling, and the total score was obtained by summing the three items.
# • (1) Erythema: a score of 0 points indicates no erythema, a score of 1 point indicates erythema appearing light red, a score of 2 points indicates erythema appearing red, a score of 3 points indicates erythema appearing dark red, and a score of 4 points indicates erythema appearing extremely deep red; • (2) Scaling: a score of 0 points indicates no scaling on the surface, a score of 1 point indicates partial skin lesions covered with scaling, a score of 2 points indicates most skin lesions covered with scaling, a score of 3 points indicates almost all skin lesions covered with scaling in layers, and a score of 4 points indicates all skin lesions covered with scaling; • (3) Thickness: a score of 0 points indicates skin lesions flush with normal skin, a score of 1 point indicates skin lesions slightly elevated above normal skin surface, a score of 2 points indicates moderate elevation of skin lesions, a score of 3 points indicates thickened skin lesions with obvious elevation, and a score of 4 points indicates highly thickened skin lesions with prominent elevation.
# Statistical analysis was performed using SPSS software, and the results were expressed as mean ± standard deviation. One-way ANOVA was used for intergroup comparisons. For data with homogeneous variance, the LSD test was used; for data with heterogeneous variance, the Dunnett-t test was used. A value of P < 0.05 was considered statistically significant.
# [6] = system: epidermal layer in rats; assay: Adverse reactions of continuous dermal administration: thickness of the epidermal layer (H&E sections); format: in vivo, SD rats; settings: compared with the blank control group
# Text: Pharmacological Example 10: Experiment on Adverse Reactions of Continuous Dermal Administration in Rats
# Animals: SD rats, SPF grade, with an equal number of males and females, weighing 230-250 g.
# Animal grouping: After adaptive feeding, the rats were randomly divided into 4 groups. […] One day before administration, the backs of rats were shaved at an area of 5 cm × 6 cm. […] The rats in the blank control group were applied with the blank matrix of corresponding mass on their backs, twice a day for a consecutive week. Table 21. Animal grouping and drug administration dosages for the experiment on adverse reactions of continuous dermal administration in rats
# To examine the effects of continuous administration of the test samples on the epidermal layer, the back skin tissues were stained with hematoxylin and eosin (H&E) (magnification ×40), and the thickness of the epidermal layer was quantitatively measured based on the H&E-stained sections.
smiles,measurement,setting,value
"C[C@]12C=CC(=O)C=C1[C@@H](F)C[C@H]1[C@@H]3C[C@H]4OC(c5ccc(CSC6CCOC6=O)cc5)O[C@@]4(C(=O)SCF)[C@@]3(C)C[C@H](O)[C@@]12F (stereo partly drawn) [Compound 34, S-(Fluoromethyl) (2S,6aS,6bR,7S,8aS,8bS,11aR,12aS,12bS)-2,6b-difluoro-7-hydroxy-6a,8a-dimethyl-4-oxo-10-(4-( ((2-oxotetrahydrofuran-3-yl)thio)methyl)phenyl)-1,2,4,6a,6b,7,8,8a,11a,12,12a,12b-dodecahydro-8bH-naphtho[2',1':4,5]indeno[1,2-d][1,3]dioxole-8b-carbothioate]",tear film break-up time,[1],significantly increased the tear film break-up time
same,intraocular pressure after continuous ocular administration,[2],no abnormal intraocular pressure observed
same,"stability in animal lung tissue homogenate, skin tissue homogenate, and aqueous humor",[3],relatively stable
same,EC50,[4],> 50 µM
same,Target selectivity PR/GR,[4],> 5.0×10^5
same,PASI scores,[5],significantly decreased PASI scores on day 7
same,thickness of the epidermal layer after continuous dermal administration,[6],no significant changes in the thickness of the epidermal layer observed
"C[C@]12C=CC(=O)C=C1[C@@H](F)C[C@H]1[C@@H]3C[C@H]4OC(c5ccc(CSC6CCOC6=O)cc5)O[C@@]4(C(=O)SCC#N)[C@@]3(C)C[C@H](O)[C@@]12F (stereo partly drawn) [Compound 35, S-(Cyanomethyl) (2S,6aS,6bR,7S,8aS,8bS,11aR,12aS,12bS)-2,6b-difluoro-7-hydroxy-6a,8a-dimethyl-4-oxo-10-(4-( ((2-oxotetrahydrofuran-3-yl)thio)methyl)phenyl)-1,2,4,6a,6b,7,8,8a,11a,12,12a,12b-dodecahydro-8bH-naphtho[2',1':4,5]indeno[1,2-d][1,3]dioxole-8b-carbothioate]",tear film break-up time,[1],significantly increased the tear film break-up time
same,intraocular pressure after continuous ocular administration,[2],no abnormal intraocular pressure observed
same,"stability in animal lung tissue homogenate, skin tissue homogenate, and aqueous humor",[3],relatively stable
same,EC50,[4],> 50 µM
same,Target selectivity PR/GR,[4],> 2.4×10^5
same,PASI scores,[5],significantly decreased PASI scores on day 7
same,thickness of the epidermal layer after continuous dermal administration,[6],no significant changes in the thickness of the epidermal layer observed
